Assay results: US11555820B2, “Nanohoop compounds for use in biotechnology and methods of making and using the same” (University of Oregon, priority 2017, dated 2023)

Assays:
[1] = Photophysical properties of meta-substituted nanohoops (absorption, emission, extinction coefficient, quantum yield); type: physicochemical; settings: for CPP ε × Φ (brightness): all-para [n]CPP with the same number of rings; for εAmax × ΦAmax (brightness) / εH→L: [n]mCPP; for Emission / Max Abs / ΦAmax (fluorescence quantum yield) / εAmax: dichloromethane; for ΦAmax (fluorescence quantum yield): room temperature; for εAmax: extinction coefficient at the absorbance maximum; for εH→L: extinction coefficient of the HOMO→LUMO transition
Procedure: In the following examples, all glassware was flame dried and cooled under an inert atmosphere of nitrogen unless otherwise noted. Moisture sensitive reactions were carried out under nitrogen atmosphere using Schlenk and standard syringe/septa techniques. Tetrahydrofuran, dichloromethane, dimethylformamide and 1,4-dioxane were dried by filtration through alumina according to the methods describes by Grubbs. Silica column chromatography was conducted with Zeochem Zeoprep 60 Eco 40-63 μm silica gel. Automated flash chromatography was performed using a Biotage Isolera One. Recycling gel permeation chromatography (GPC) was performed using a Japan Analytical Industry LC-9101 preparative HPLC with JAIGEL-1H/JAIGEL-2H columns in series using CHCl3. Thin Layer Chromatography (TLC) was performed using Sorbent Technologies Silica Gel XHT TLC plates. Developed plates were visualized using UV light at wavelengths of 254 and 365 nm. ^1H NMR spectra were recorded at 500 MHz or 600 MHz on a Bruker Advance-II-HD NMR spectrometer. ^13C NMR spectra were recorded 150 MHz on a Bruker Advance-III-HD NMR spectrometer. All ^1H NMR spectra were taken in CDCl3 (referenced to TMS, δ 0.00 ppm) or DMSO-d6 (referenced to residual DMSO, δ 2.50 ppm). All ^13C NMR spectra were taken in CDCl3 (referenced to chloroform, δ 77.16 ppm) or DMSO-d6 (referenced to DMSO, δ 39.52 ppm). Absorbance and fluorescence spectra were obtained in a 1 cm Quartz cuvette with dichloromethane using an Agilent Cary 100 UV-Vis spectrometer and a Horiba Jobin Yvon Fluoromax-4 Fluorimeter. Fluorescent quantum yield was measured in dichloromethane at room temperature using a Hamamatsu absolute PL quantum yield measurement system. Electrochemical experiments were performed using a Biologic SP-50 potentiostat with a Ag wire reference electrode, Pt wire counter electrode, and glassy carbon working electrode under nitrogen atmosphere in 100 mM solutions of Bu4NPF6 in DCM with ferrocene as a reference. All reagents were obtained commercially unless otherwise noted. Compounds para-benzoquinone mono-methyl ketal, compound A, compound B, PPh3 Pd Gen III, and SPhos Pd Gen 1115 were prepared according to literature procedure.
In this example, the photophysical properties of nanohoop compound embodiments comprising meta-substitution (wherein the meta-substitution refers to the fact that one of the rings of the nanohoop skeleton is connected to other rings of the nanohoop skeleton via bonds that are meta-substituted relative to each other) was evaluated. It was determined that disrupting the conjugation of the nanohoop allows the HOMO→LUMO absorption and “turns on” the fluorescence in the smaller sizes (e.g., 6-membered and 5-membered nanohoops). The absorption and emission data as well as extinction coefficients and quantum yields were collected. […] Two absorption transitions can be seen in for the smaller sizes, but the second transition blue-shifts and overlaps with the absorption at 328 nm for [10]- and [12]mCPP. The extinction coefficient of the higher energy transition is larger than that of the lower energy transition in all cases (Table 10). […] Graphs showing the extinction coefficient determination of [5]mCPP at the absorbance maxima and HOMO→LUMO transition are provided in FIGS. 10A and 10B, respectively. Graphs showing the extinction coefficient determination of [6]mCPP at the absorbance maxima and HOMO→LUMO transition are provided in FIGS. 11A and 11B, respectively. Graphs showing the extinction coefficient determination of [7]mCPP at the absorbance maxima and HOMO→LUMO transition are provided in FIGS. 12A and 12B, respectively. Graphs showing the extinction coefficient determination of [8]mCPP at the absorbance maxima and HOMO→LUMO transition are provided in FIGS. 13A and 13B, respectively. Graphs showing the extinction coefficient determination of [10]mCPP and [12]mCPP at the absorbance maxima are provided in FIGS. 14 and 15, respectively. […]

[2] = all-para [n]CPP, n≤7; cited from earlier work
HeLa cells = experiment: Colorimetric CCK-8 viability assay of HeLa cells; type: cell-based; settings: [12]CPP 0.25-1 uM, [8]CPP 0.5-2 uM, 5 wt percent Pluronic F108 in DMEM
Procedure: HeLa cells were treated with varying concentrations of [8]CPP and [12]CPP in the presence of 5 wt percent Pluronic F108 in DMEM, and their viability was measured using a colorimetric CCK-8 assay (purchased from Dojindo and performed following the assay instructions). Briefly, the cells were treated with the nanohoop compound and the tetrazolium salt WST-8 at each concentration for 2 hours at 37 degrees Celsius, and the optical density of the cells was subsequently measured at 450 nm. The viability of cells treated with the [12]CPP and [8]CPP compounds is illustrated in FIGS. 1 and 2, respectively.
In this example, HeLa cells were treated with the disulfonated[8]CPP nanohoop Compound 1 at concentrations of 5 uM, 10 uM, 25 uM, 50 uM and 100 uM and their viability was measured using a standard colorimetric CCK-8 assay, as described above for Example 1. The percentage of living cells remaining after exposure to various concentrations of Compound 1 is illustrated in the graph shown in FIG. 3.

SMILES	CPP ε × Φ (brightness) [1]	H→L Absorbance ([1]; HOMO→LUMO transition)	εAmax × ΦAmax (brightness) [1]	Emission [1]	Max Abs [1]	ΦAmax (fluorescence quantum yield) [1]	εAmax [1]	εH→L [1]	fluorescence of para-substituted CPP (in words) [2]	further results
O[C@]12C=C[C@](O)(C=C1)c1ccc(cc1)[C@]1(O)C=C[C@@](O)(C=C1)c1ccc(cc1)-c1cccc(c1)[C@@H]1C=CC2=CC1 [[6]mCPP]	–	410 nm	1.2 × 10^4	510 nm	328 nm	0.224	5.4 × 10^4 ± 0.3 M^−1cm^−1	9.4 × 10^3 ± 0.5 M^−1cm^−1	–	–
O[C@]12C=C[C@](O)(CC1)c1ccc(cc1)-c1ccc(cc1)[C@]1(O)C=C[C@@H](C=C1)c1ccc(cc1)-c1cccc(c1)-c1ccc2cc1 [[7]mCPP]	–	394 nm	2.3 × 10^4	491 nm	328 nm	0.450	5.1 × 10^4 ± 0.09 M^−1cm^−1	9.9 × 10^3 ± 0.08 M^−1cm^−1	–	–
CO[C@]12C=C[C@](O)(C=C1)c1ccc(cc1)-c1cccc(c1)-c1ccc(cc1)[C@]1(O)C=C[C@@](OC)(C=C1)C1C=CC(=CC1)[C@]1(O)C=C[C@@](O)(CC1)[C@H]1C=CC2=CC1 [[8]mCPP]	–	376 nm	3.7 × 10^4	484 nm	326 nm	0.595	6.2 × 10^4 ± 0.9 M^−1cm^−1	1.4 × 10^4 ± 0.1 M^−1cm^−1	–	–
c1cc2ccc1-c1ccc(cc1)-c1ccc(cc1)-c1ccc(cc1)-c1ccc(cc1)-c1ccc(cc1)-c1ccc(cc1)-c1ccc(cc1)-c1ccc(cc1)-c1ccc-2cc1 [[10]CPP, reference compound]	8.5 × 10^4	–	–	–	–	–	–	–	–	–
c1cc2cc(c1)-c1ccc(cc1)-c1ccc(cc1)-c1ccc(cc1)-c1ccc(cc1)-c1ccc(cc1)-c1ccc(cc1)-c1ccc(cc1)-c1ccc(cc1)-c1ccc-2cc1 [[10]mCPP]	–	–	5.2 × 10^4	456 nm	328 nm	0.726	7.1 × 10^4 ± 0.2 M^−1cm^−1	–	–	overall brightness versus commercial fluorophores (in words) ([1]; compared with DAPI and Rhodamine 110): brighter than many commercial fluorophores
c1cc2ccc1-c1ccc(cc1)-c1ccc(cc1)-c1ccc(cc1)-c1ccc(cc1)-c1ccc(cc1)-c1ccc(cc1)-c1ccc(cc1)-c1ccc(cc1)-c1ccc(cc1)-c1ccc(cc1)-c1ccc-2cc1 [[12]CPP, reference compound]	1.4 × 10^5	–	–	–	–	–	–	–	–	toxicity to HeLa cells (in words) (HeLa cells): not toxic

Further lines, with some results ahead:

CPP ε × Φ (brightness) [1]	H→L Absorbance ([1]; HOMO→LUMO transition)	εAmax × ΦAmax (brightness) [1]	Emission [1]	Max Abs [1]	ΦAmax (fluorescence quantum yield) [1]	εAmax [1]	εH→L [1]	SMILES	fluorescence of para-substituted CPP (in words) [2]	further results
0	–	–	–	–	–	–	–	c1cc2ccc1=c1ccc(cc1)=c1ccc(cc1)=c1ccc(cc1)=c1ccc=2cc1 [[5]CPP, reference compound]	no fluorescence	absorption (extinction coefficient) compared with [5]mCPP ([1]; all-para [5]CPP, HOMO→LUMO transition): 450 M⁻¹ cm⁻¹
0	–	–	–	–	–	–	–	c1cc2ccc1=c1ccc(cc1)=c1ccc(cc1)=c1ccc(cc1)=c1ccc(cc1)=c1ccc=2cc1 [[6]CPP, reference compound]	no fluorescence	–
4.8 × 10^2	–	–	–	–	–	–	–	c1cc2ccc1-c1ccc(cc1)-c1ccc(cc1)-c1ccc(cc1)-c1ccc(cc1)-c1ccc(cc1)-c1ccc-2cc1 [[7]CPP, reference compound]	only weak fluorescence	–
1.0 × 10^4	–	–	–	–	–	–	–	c1cc2ccc1=c1ccc(cc1)=c1ccc(cc1)=c1ccc(cc1)=c1ccc(cc1)=c1ccc(cc1)=c1ccc(cc1)=c1ccc=2cc1 [[8]CPP, reference compound]	–	toxicity to HeLa cells (in words) (HeLa cells): not toxic
